Measurements from patent US10287301B2 (Achillion Pharmaceuticals, Inc., priority 2015, dated 2019).
Read-outs that look alike come from different tables or passages of the source.

Molecular target: Human Factor D (Homo sapiens (Human), UniProt P00746)
Assay: Human Factor D Assay
Type: biochemical
Summary of the method: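 Thioesterase activity monitored with Z-L-Lys-SBzl plus Ellman's reagent (DTNB), each 100 μM final, after 5 min room-temperature compound preincubation of 80 nM human serum Factor D in pH 7.5 Tris (50 mM)/1M NaCl.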

[1] = Human Factor D, Table 3, read-out: IC50

Chain of Human Factor D (P00746 26-253): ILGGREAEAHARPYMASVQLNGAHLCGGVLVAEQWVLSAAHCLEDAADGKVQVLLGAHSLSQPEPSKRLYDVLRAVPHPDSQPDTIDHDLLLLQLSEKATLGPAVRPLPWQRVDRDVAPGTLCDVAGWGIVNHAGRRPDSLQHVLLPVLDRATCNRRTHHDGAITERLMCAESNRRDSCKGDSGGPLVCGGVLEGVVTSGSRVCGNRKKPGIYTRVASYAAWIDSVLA

SMILES | IC50 [1] | IC50
Cc1cccc(NC(=O)[C@@H]2C[C@@H](F)CN2C(=O)Cn2nc(C(N)=O)c3sc(-c4cnc(C)nc4)nc32)n1 [Compound 715, 1-(2-((2S,4R)-4-Fluoro-2-(6-methylpyridin-2-ylcarbamoyl)pyrrolidin-1-yl)-2-oxoethyl)-5-(2-methylpyrimidin-5-yl)-1H-pyrazolo[3,4-d]thiazole-3-carboxamide] | > 10 µM | –
CC(=O)c1ccc(Cl)c(-c2cccc(NC(=O)[C@@H]3C[C@H]4C[C@H]4N3C(=O)Cn3nc(C(N)=O)c4sc(-c5cnc6cc(C)nn6c5)nc43)c2F)c1 [Compound 716, 1-(2-((1R,3S,5R)-3-(5′-Acetyl-2′-chloro-2-fluorobiphenyl-3-ylcarbamoyl)-2-azabicyclo[3.1.0]hexan-2-yl)-2-oxoethyl)-5-(2-methylpyrazolo[1,5-a]pyrimidin-6-yl)-1H-pyrazolo[3,4-d]thiazole-3-carboxamide] | < 1 µM | –
CC(=O)c1ccc(Cl)c(-c2cccc(NC(=O)[C@@H]3C[C@H]4C[C@H]4N3C(=O)Cn3nc(C(N)=O)c4sc(-c5cnc(C)nc5)nc43)c2F)c1 [Compound 717, 1-(2-((1R,3S,5R)-3-(5′-Acetyl-2′-chloro-2-fluorobiphenyl-3-ylcarbamoyl)-2-azabicyclo[3.1.0]hexan-2-yl)-2-oxoethyl)-5-(2-methylpyrimidin-5-yl)-1H-pyrazolo[3,4-d]thiazole-3-carboxamide] | < 1 µM | –
CC(=O)c1nn(CC(=O)N2C[C@H](F)C[C@H]2C(=O)Nc2cccc(Br)n2)c2cc(C(=O)N(C)C)c(-c3cnc(C)nc3)cc12 [Compound 722, 3-Acetyl-1-(2-((2S,4R)-2-((6-bromopyridin-2-yl)carbamoyl)-4-fluoropyrrolidin-1-yl)-2-oxoethyl)-N,N-dimethyl-5-(2-methylpyrimidin-5-yl)-1H-indazole-6-carboxamide] | < 1 µM | –
CNc1ncc2cc(-c3cn(CC(=O)N4C[C@H](F)C[C@H]4C(=O)Nc4cccc(Br)n4)nc3C(N)=O)ccc2n1 [Compound 723, 1-(2-((2S,4R)-2-((6-Bromopyridin-2-yl)carbamoyl)-4-fluoropyrrolidin-1-yl)-2-oxoethyl)-4-(2-(methylamino)quinazolin-6-yl)-1H-pyrazole-3-carboxamide] | > 10 µM | –
NC(=O)c1nn(CC(=O)N2C[C@H](F)C[C@H]2C(=O)Nc2cccc(Br)n2)cc1-c1cnn(C2CC2)c1 [Compound 726, 1-(2-((2S,4R)-2-((6-Bromopyridin-2-yl)carbamoyl)-4-fluoropyrrolidin-1-yl)-2-oxoethyl)-1′-cyclopropyl-1H,1′H-[4,4′-bipyrazole]-3-carboxamide] | > 10 µM | –
CC(=O)N1CC=C(c2cn(CC(=O)N3C[C@H](F)C[C@H]3C(=O)Nc3cccc(Br)n3)nc2C(N)=O)CC1 [Compound 727, 4-(1-acetyl-1,2,3,6-Tetrahydropyridin-4-yl)-1-(2-((2S,4R)-2-((6-bromopyridin-2-yl)carbamoyl)-4-fluoropyrrolidin-1-yl)-2-oxoethyl)-1H-pyrazole-3-carboxamide] | > 10 µM | –
NC(=O)c1nn(CC(=O)N2C[C@H](F)C[C@H]2C(=O)Nc2cccc(Br)n2)cc1-c1cnn(-c2ncc(F)cn2)c1 [Compound 729, 1-(2-((2S,4R)-2-((6-Bromopyridin-2-yl)carbamoyl)-4-fluoropyrrolidin-1-yl)-2-oxoethyl)-1′-(5-fluoropyrimidin-2-yl)-1H,1′H-[4,4′-bipyrazole]-3-carboxamide] | > 10 µM | –
CC(=O)c1nn(CC(=O)N2[C@H](C)CC[C@H]2C(=O)Nc2nc(Br)ccc2C)c2ccc(-c3cnc(C)nc3)cc12 [Compound 731, (2S,5R)-1-(2-(3-Acetyl-5-(2-methylpyrimidin-5-yl)-1H-indazol-1-yl)acetyl)-N-(6-bromo-3-methylpyridin-2-yl)-5-methylpyrrolidine-2-carboxamide] | < 1 µM | –
CC(=O)c1nn(CC(=O)N2C[C@H](F)C[C@H]2C(=O)NC2(C#N)CC2)c2ccc(-c3cnc(C)nc3)cc12 [Compound 739, (2S,4R)-1-(2-(3-acetyl-5-(2-methylpyrimidin-5-yl)-1H-indazol-1-yl)acetyl)-N-(1-cyanocyclopropyl)-4-fluoropyrrolidine-2-carboxamide] | < 1 µM | –
CC(=O)c1nn(CC(=O)N2C[C@H](F)C[C@H]2C(=O)Nc2cccc(Br)n2)c2ccc(-c3cnc(N)[n+]([O-])c3)cc12 [Compound 741, 5-(3-acetyl-1-(2-((2S,4R)-2-((6-Bromopyridin-2-yl)carbamoyl)-4-fluoropyrrolidin-1-yl)-2-oxoethyl)-1H-indazol-5-yl)-2-aminopyrimidine 1-oxide] | < 1 µM | –
CC(=O)c1nn(CC(=O)N2C[C@H](F)C[C@H]2C(=O)Nc2cccc(Br)n2)c2ccc(-c3cnc(C)[n+]([O-])c3)cc12 [Compound 742, 5-(3-Acetyl-1-(2-((2S,4R)-2-((6-bromopyridin-2-yl)carbamoyl)-4-fluoropyrrolidin-1-yl)-2-oxoethyl)-1H-indazol-5-yl)-2-methylpyrimidine 1-oxide] | < 1 µM | –
CC(=O)c1nn(CC(=O)N2C[C@H](F)C[C@H]2C(=O)Nc2cccc(Br)[n+]2[O-])c2ccc(-c3cnc(C)nc3)cc12 [Compound 743, 2-((2S,4R)-1-(2-(3-Acetyl-5-(2-methylpyrimidin-5-yl)-1H-indazol-1-yl)acetyl)-4-fluoropyrrolidine-2-carboxamido)-6-bromopyridine 1-oxide] | – | 1 to 10 µM
CC(=O)c1nn(CC(=O)N2C[C@H](F)C[C@H]2C(=O)Nc2cccc(Br)[n+]2[O-])c2ccc(-c3cnc(C)[n+]([O-])c3)cc12 [Compound 744, 5-(3-Acetyl-1-(2-((2S,4R)-2-((6-bromo-1-oxidopyridin-2-yl)carbamoyl)-4-fluoropyrrolidin-1-yl)-2-oxoethyl)-1H-indazol-5-yl)-2-methylpyrimidine 1-oxide] | – | 1 to 10 µM
CC(=O)c1nn(CC(=O)N2C[C@H](F)C[C@H]2C(=O)Nc2cccc(-c3cc(S(=O)(=O)NC4CC4)ccc3Cl)c2F)c2ccc(-c3cnc(C)nc3)cc12 [Compound 745, (2S,4R)-1-(2-(3-Acetyl-5-(2-methylpyrimidin-5-yl)-1H-indazol-1-yl)acetyl)-N-(2′-chloro-5′-(N-cyclopropylsulfamoyl)-2-fluoro-[1,1′-biphenyl]-3-yl)-4-fluoropyrrolidine-2-carboxamide] | < 1 µM | –
CC(=O)c1nn(CC(=O)N2CCOC[C@@H]2C(=O)Nc2cccc(Br)n2)c2ccc(-c3cnc(C)nc3)cc12 [Compound 748, (R)-4-(2-(3-acetyl-5-(2-methylpyrimidin-5-yl)-1H-indazol-1-yl)acetyl)-N-(6-bromopyridin-2-yl)morpholine-3-carboxamide] | < 1 µM | –
CC(=O)c1nn(CC(=O)N2CCOC[C@H]2C(=O)Nc2cccc(Br)n2)c2ccc(-c3cnc(C)nc3)cc12 [Compound 749, (S)-4-(2-(3-acetyl-5-(2-methylpyrimidin-5-yl)-1H-indazol-1-yl)acetyl)-N-(6-bromopyridin-2-yl)morpholine-3-carboxamide] | < 1 µM | –
CC(=O)c1nn(CC(=O)N2C[C@H](F)C[C@H]2C(=O)Nc2cccc(S(=O)(=O)C(F)(F)F)c2)c2ccc(-c3cnc4cc(C)nn4c3)cc12 [Compound 752, (2S,4R)-1-(2-(3-acetyl-5-(2-methylpyrazolo[1,5-a]pyrimidin-6-yl)-1H-indazol-1-yl)acetyl)-4-fluoro-N-(3-((trifluoromethyl)sulfonyl)phenyl) pyrrolidine-2-carboxamide] | < 1 µM | –
